Measured values taken from the supplement of paper PMC13380429.

Key:
Details in all cases: 72 h
HepG2 [1] = assay: drug sensitivity score (DSS) for viability; higher = more toxic; extreme values may be limits of the assay
Calu-3 [2] = assay: as above
Vero E6 [3] = assay: as above
U2OS [4] = assay: as above
Caco-2 [5] = assay: as above
HepG2 [6] = assay: cell viability relative to DMSO; higher = less toxic
Calu-3 [7] = assay: as above
Vero E6 [8] = assay: as above
U2OS [9] = assay: as above
Caco-2 [10] = assay: as above
HepG2 [11] = assay: relative viability EC50 (midpoint between 100% and the lowest measured viability); higher = less toxic
Calu-3 [12] = assay: as above
Vero E6 [13] = assay: as above
U2OS [14] = assay: as above
Caco-2 [15] = assay: as above

Work on `O=C1C(CC[S+]([O-])c2ccccc2)C(=O)N(c2ccccc2)N1c1ccccc1` (stereo not given) [sulfinpyrazone] yielded a drug sensitivity score (HepG2 [1]) of 0, a drug sensitivity score (Calu-3 [2]) of 0 and a drug sensitivity score (Vero E6 [3]) of 0. It also gave a drug sensitivity score (U2OS [4]) of 0, a drug sensitivity score (Caco-2 [5]) of 0 and a cell viability (HepG2 [6]; 1 nM) of 109%. For the same compound, the cell viability (HepG2 [6]; 10 nM) was 115%, the cell viability (HepG2 [6]; 100 nM) was 110% and the cell viability (HepG2 [6]; 1000 nM) was 97.7%. It also gave a cell viability (HepG2 [6]; 10000 nM) of 110%, a cell viability (Calu-3 [7]; 1 nM) of 93.2% and a cell viability (Calu-3 [7]; 10 nM) of 98%. The cell viability (Calu-3 [7]; 100 nM) was 98.9%, the cell viability (Calu-3 [7]; 1000 nM) was 94% and the cell viability (Calu-3 [7]; 10000 nM) was 105%. The cell viability (Vero E6 [8]; 1 nM) was 106%, the cell viability (Vero E6 [8]; 10 nM) was 103% and the cell viability (Vero E6 [8]; 100 nM) was 100%. The cell viability (Vero E6 [8]; 1000 nM) was 97.1%, the cell viability (Vero E6 [8]; 10000 nM) was 103% and the cell viability (U2OS [9]; 1 nM) was 97.5%. For the same compound, the cell viability (U2OS [9]; 10 nM) was 102%, the cell viability (U2OS [9]; 100 nM) was 104% and the cell viability (U2OS [9]; 1000 nM) was 102%. It also gave a cell viability (U2OS [9]; 10000 nM) of 102%, a cell viability (Caco-2 [10]; 1 nM) of 102% and a cell viability (Caco-2 [10]; 10 nM) of 103%. For the same compound, the cell viability (Caco-2 [10]; 100 nM) was 98.5%, the cell viability (Caco-2 [10]; 1000 nM) was 99.8% and the cell viability (Caco-2 [10]; 10000 nM) was 90.5%. For the same compound, the “relative viability EC50” value (HepG2 [11]) was over 10 µM, the “relative viability EC50” value (Calu-3 [12]) was over 10 µM and the “relative viability EC50” value (Vero E6 [13]) was over 10 µM. The “relative viability EC50” value (U2OS [14]) was over 10 µM and the “relative viability EC50” value (Caco-2 [15]) was over 10 µM.
`COc1cc(O)c(C(=O)c2ccccc2)cc1S(=O)(=O)O` [sulisobenzone] was tested, and the drug sensitivity score (HepG2 [1]) was 0, the drug sensitivity score (Calu-3 [2]) was 0 and the drug sensitivity score (Vero E6 [3]) was 0. It also gave a drug sensitivity score (U2OS [4]) of 0, a drug sensitivity score (Caco-2 [5]) of 0 and a cell viability (HepG2 [6]; 1 nM) of 93.3%. The cell viability (HepG2 [6]; 10 nM) was 101%, the cell viability (HepG2 [6]; 100 nM) was 99.8% and the cell viability (HepG2 [6]; 1000 nM) was 99.3%. For the same compound, the cell viability (HepG2 [6]; 10000 nM) was 98.3%, the cell viability (Calu-3 [7]; 1 nM) was 100% and the cell viability (Calu-3 [7]; 10 nM) was 106%. It also gave a cell viability (Calu-3 [7]; 100 nM) of 98.1%, a cell viability (Calu-3 [7]; 1000 nM) of 109% and a cell viability (Calu-3 [7]; 10000 nM) of 102%. It also gave a cell viability (Vero E6 [8]; 1 nM) of 103%, a cell viability (Vero E6 [8]; 10 nM) of 99.1% and a cell viability (Vero E6 [8]; 100 nM) of 95.7%. For the same compound, the cell viability (Vero E6 [8]; 1000 nM) was 95.9%, the cell viability (Vero E6 [8]; 10000 nM) was 89.9% and the cell viability (U2OS [9]; 1 nM) was 103%. The cell viability (U2OS [9]; 10 nM) was 94.8%, the cell viability (U2OS [9]; 100 nM) was 98.4% and the cell viability (U2OS [9]; 1000 nM) was 94.6%. It also gave a cell viability (U2OS [9]; 10000 nM) of 98.7%, a cell viability (Caco-2 [10]; 1 nM) of 104% and a cell viability (Caco-2 [10]; 10 nM) of 96.3%. It also gave a cell viability (Caco-2 [10]; 100 nM) of 102%, a cell viability (Caco-2 [10]; 1000 nM) of 91.8% and a cell viability (Caco-2 [10]; 10000 nM) of 103%. For the same compound, the “relative viability EC50” value (HepG2 [11]) was over 10 µM, the “relative viability EC50” value (Calu-3 [12]) was over 10 µM and the “relative viability EC50” value (Vero E6 [13]) was over 10 µM. For the same compound, the “relative viability EC50” value (U2OS [14]) was over 10 µM and the “relative viability EC50” value (Caco-2 [15]) was over 10 µM.
For `Cn1nnc2c(C(N)=O)ncn2c1=O` [temozolomide], the drug sensitivity score (HepG2 [1]) was 0, the drug sensitivity score (Calu-3 [2]) was 0 and the drug sensitivity score (Vero E6 [3]) was 0. The drug sensitivity score (U2OS [4]) was 0, the drug sensitivity score (Caco-2 [5]) was 0 and the cell viability (HepG2 [6]; 1 nM) was 112%. For the same compound, the cell viability (HepG2 [6]; 10 nM) was 99.6%, the cell viability (HepG2 [6]; 100 nM) was 104% and the cell viability (HepG2 [6]; 1000 nM) was 93.5%. The cell viability (HepG2 [6]; 10000 nM) was 114%, the cell viability (Calu-3 [7]; 1 nM) was 97.6% and the cell viability (Calu-3 [7]; 10 nM) was 106%. It also gave a cell viability (Calu-3 [7]; 100 nM) of 102%, a cell viability (Calu-3 [7]; 1000 nM) of 94.5% and a cell viability (Calu-3 [7]; 10000 nM) of 98.6%. The cell viability (Vero E6 [8]; 1 nM) was 99.4%, the cell viability (Vero E6 [8]; 10 nM) was 97.5% and the cell viability (Vero E6 [8]; 100 nM) was 95.9%. For the same compound, the cell viability (Vero E6 [8]; 1000 nM) was 98.2%, the cell viability (Vero E6 [8]; 10000 nM) was 102% and the cell viability (U2OS [9]; 1 nM) was 98%. For the same compound, the cell viability (U2OS [9]; 10 nM) was 103%, the cell viability (U2OS [9]; 100 nM) was 92.3% and the cell viability (U2OS [9]; 1000 nM) was 96.8%. It also gave a cell viability (U2OS [9]; 10000 nM) of 95%, a cell viability (Caco-2 [10]; 1 nM) of 90.3% and a cell viability (Caco-2 [10]; 10 nM) of 97.3%. The cell viability (Caco-2 [10]; 100 nM) was 96%, the cell viability (Caco-2 [10]; 1000 nM) was 106% and the cell viability (Caco-2 [10]; 10000 nM) was 99.3%. The “relative viability EC50” value (HepG2 [11]) was over 10 µM, the “relative viability EC50” value (Calu-3 [12]) was over 10 µM and the “relative viability EC50” value (Vero E6 [13]) was over 10 µM. The “relative viability EC50” value (U2OS [14]) was over 10 µM and the “relative viability EC50” value (Caco-2 [15]) was over 10 µM.
